Experiments:
MAEC = assay: Monocyte adhesion: THP-1 monocytes bound to mouse aortic endothelial cells; type: cell-based
Experimental: (§1) Endothelial cells: Mouse aortic endothelial cells (MAEC) were cultured and used at passages 4-8 as described (Cai, H., et al. (2002) J Bio Chem 107, 48311-48317). Human aortic endothelial cells (HAEC) purchased from Clonetics were cultured using EGM-2 bullet kit (Clonetics) and used at passages 4-8. Alternatively, endothelial cells obtained from the thoracic aortas of C57/BL6 control (MAE-wt) and p47^phox-null mice (MAE-p47^−/−) were isolated and cultured as described previously (Hwang, J. et al. (2003) J Biol Chem 278:47291-8), and used between passages 4-10.
(§2) Shear stress studies: Confluent endothelial monolayers grown in 100 mm tissue culture dishes were exposed to an arterial level of uni-directional LS (15 dyn/cm^2) in the growth medium by rotating a Teflon cone (0.5° cone angle) as described previously. To mimic unstable shear conditions in vivo, endothelial cells were exposed to OS with directional changes of flow at 1 Hz cycle (±5 dyn/cm^2) by rotating the cone back-and-forth using a stepping motor (Servo Motor) and a computer program (DC Motor Company, Atlanta, Ga.). In some studies, 5 dyn/cm^2 unidirectional LS was used for comparison to OS (±5 dyn/cm^2).
Monocyte Adhesion: Monocyte binding was determined under no-flow conditions using THP-1 monocytes (ATCC) by the method described by Chappel et al (Chappell, D. C., et al. (1998) Circ Res 82, 532-539). Briefly, THP-1 cells (5×10^5 cells/ml) were labeled with a fluorescent dye 2′,7′-bis(carboxyethyl)-5(6)-carboxyfluorescein-AM (BCECF, Molecular Probes) (1 mg/ml) in serum-free RPMI medium for 45 min at 37° C. Following exposure to shear stress or BMP treatments in the presence or absence of noggin or vehicle, the endothelial cells were washed in RPMI medium before adding BCECF-loaded THP-1 cells (1:1 ratio). After a 30 min incubation at 37° C. under no-flow conditions, unbound monocytes were removed by washing the endothelial dishes 5 times with Hank's PBS. Bound monocytes were quantified by either counting the cells under a fluorescent microscope or by measuring the fluorescent intensity of cell lysates by fluorescence spectrophotometry using a plate reader. […] Some studies were performed with MAEC pretreated with 5 μg/ml of mouse-ICAM1 antibody (YN1, Southern Biolechonology) (Kevil, C. G., et al. (2001) Am J Physiol Cell Physiol 281, C1442-1447).
In FIG. 7B, confluent MAE-wt cells were pre-incubated with cell-permeable PEG-catalase (Catalase, 100 U/ml for 18 hrs) or Tiron (10 μmol/L for 1 hr). Cells were then incubated with 20 ng/ml BMP4 or vehicle for additional 18 hrs. The treated cells in 7A and 7B were washed, and fluorescently-labeled THP-1 monocytes were added. Unbound THP-1 cells were washed after 30 min, and bound monocytes were counted with a fluorescence microscope using a 10× objective (5-10 different fields per dish). […] As a positive control, monocyte binding was determined using MAE-wt treated with TNF-α(100 U/ml for 2hrs).

ICAM-1 = ICAM-1 surface expression by FACS analysis in HAEC; type: cell-based, human
Experimental: as §1, §2
(§3) Fluorescence activated cytometry sorting (FACS) analysis: Treated cells were dissociated into single cell suspensions using 0.25% trypsin-EDTA and resuspended in a FACS buffer (Hank's buffered solution containing 5% FBS). Aliquots of cell suspensions were incubated with ICAM-1 antibody (R&D Systems) for 20 min on ice, washed twice with FACS buffer, and incubated with secondary antibody (fluorescein-5-isothiocyanate- or phycoerytherin-conjugated, Chemicon) for 20 min on ice in the dark. Then samples were washed again, fixed in 1% paraformaldehyde and analyzed by FACS (Calibur, Becton-Dickinson) using CellQuest software. The fluorescence intensity of ICAM-1 and forward cell scattering of 30,000 cells were measured and the geometric means calculated from histograms were shown. In some studies, HAEC were transfected with either BMP4 cloned in a bi-cistronic pAdTrack CMV vector or an empty vector, both expressing green fluorescent protein (GFP), using Lipofectamine 2000. In these experiments, ICAM-1 expression was measured in the red phycoerytherin channel, while the green channel was used to monitor the […] expression-GFP expression was determined by FACS analysis and fluorescence microscopy (20-30% transfection efficiency). Because expression of GFP was similar among different treatment groups within the same experiment, it was unnecessary to normalize ICAM-1 expression data to GFP level. Human recombinant noggin was purchased from R&D Systems and used in all experiments at 50 ng/ml (Dale, L., and Jones, C. M. (1999) Bioessays 21, 751-760; Zimmerman, L. B., et al. (1996) Cell 86, 599-606; Brunei, L. J., et al. (1998) Science 280, 1455-1457).

VCAM-1 = VCAM-1 expression in endothelial cells; type: cell-based, human
Experimental: as §3
HAEC treated with OS, BMP4 or static condition were analyzed by FACS using antibodies specific to VCAM-1 (C) and E-selectin (D) as described in panel A using TNFa (1OOU/ml, for 2 hr) as a positive control.

NF-κB = NF-κB assay with NF-κB-SEAP reporter construct; type: cell-based; conditions: NF-κB-SEAP co-transfected with BMP4 vector vs empty vector
Experimental: NF-κB assay: NF-κB activity was determined by using a NF-κB reporter construct, NF-κB-SEAP vector (lug, Clontech) expressing a secreted form of placental alkaline phosphatase driven by […] sequences in tandem. This construct was co-transfected with 0.5 μg of either pAdTrack BMP4 or empty vector control using Lipofectamine 2000. Six hours post transfection, conditioned media were centrifuged, heat-treated at 65° C. (to inactivate endogenous alkaline phosphatase) for 30 min, and followed by chemiluminescence alkaline phosphatase assay according to the manufacturer's instructions.
In this study, NF-κB-SEAP construct expressing a secreted form of placental alkaline phosphatase driven by 4 κB sequences in tandem was co-transfected with either BMP4 vector or empty vector control by a Lipofectamine method used above (FIG. 5F).

## BMP4
MAEC; MAE-wt cells, BMP4 20 ng/ml, 18 hrs
  monocyte adhesion above vehicle control: 5 to 6 fold
MAEC; MAEC sheared (LS) 24 hrs in medium supplemented with BMP4
  effect on LS inhibition of monocyte adhesion: inhibitory effect of LS on monocyte adhesion was lost
MAEC; MAEC treated with increasing concentrations of BMP4 for 24 hr (overnight)
  monocyte binding, maximum activation over control: 4 to 7 fold
MAEC; MAEC, 24 hr
  BMP4 concentration inducing maximum effect on monocyte adhesion: 50 ng/mL
  lowest BMP4 concentration inducing a statistically significant increase in monocyte adhesion: 0.1 ng/mL
ICAM-1; HAEC transfected with BMP4 vector (Lipofectamine)
  ICAM-1 expression above vector control cells: 3 to 4 fold
ICAM-1; HAEC, BMP4 overexpression (transfection)
  ICAM-1 expression above empty vector control: 84%
VCAM-1; FIG. 5E study, p>0.05, n=3
  effect on VCAM-1: marginal at best and not significant
VCAM-1; HAEC, FACS, TNF-α 100 U/ml for 2 hr as positive control
  effect on surface expression of VCAM-1: neither OS nor BMP4 had any effect
NF-κB
  NF-κB activity above controls: more than 3 fold

Reference: patent publication US20060276385A1, “Anti-inflammatory agents and methods of their use” (priority 2003, published 2006)
